US11478478B2, “2,3-disubstituted 1-acyl-4-amino-1,2,3,4-tetrahydroquinoline derivatives and their use as bromodomain inhibitors” (GLAXOSMITHKLINE INTELLECTUAL PROPERTY (NO.2) LIMITED, priority 2013, dated 2022)
Where a name gives a salt, the structure may show the parent alone.

Target: T1, BRD4 BD2 (Homo sapiens, UniProt O60885, Y97A)
T1 construct: BRD4 (1-477) (Y97A) and (Y390A); made in house; host or cells: E. coli (pET15b vector)
Assay: TR-FRET binding assay, BRD4 BD2 (BD1-mutated protein)
Details: read-out: pIC50 in the BRD4 BD2 assay (converted)
Method in brief: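 Displacement of Alexa Fluor647-labelled bromodomain ligand (at Kd) from 10 nM His-tagged BRD4 (1-477, Y97A) read by Eu-anti-His TR-FRET (665/615 ratio) in pH 7.4 HEPES buffer, 0.5% DMSO. Compound preincubated 30 min at rt, detection ≥30 min. pIC50 derived from four-parameter fit after normalisation to controls.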

Row | IC50 [nM] | Structure (SMILES)
1 | 100 | COCCn1cc(-c2ccc3c(c2)[C@H](Nc2cccc(C)n2)[C@@H](C)[C@H](C2CC2)N3C(C)=O)cn1 (single isomer, unassigned) [Example 136a]
2 | 100 | CC(=O)N1c2ccc(F)cc2[C@H](Nc2ncccc2C#N)[C@@H](C)[C@@H]1C [Example 504, 2-(((2S,3R,4R)-1-acetyl-6-fluoro-2,3-dimethyl-1,2,3,4-tetrahydroquinolin-4-yl)amino)nicotinonitrile]
3 | 100 | CC(=O)N1c2ccccc2[C@H](Nc2ccc(F)cc2)[C@@H](C)[C@@H]1C1CC1 (racemic) [Example 32, rac-1-((2S,3R,4R)-2-Cyclopropyl-4-((4-fluorophenyl)amino)-3-methyl-3,4-dihydroquinolin-1(2H)-yl)ethanone]
4 | 1000 to 100000 | CC(=O)N1c2ccc(N3CCNCC3)nc2[C@H](Nc2ccccc2)[C@@H](C)[C@@H]1C1CC1 (racemic) [Example 108, rac-1-((2S,3R,4R)-2-cyclopropyl-3-methyl-4-(phenylamino)-6-(piperazin-1-yl)-3,4-dihydro-1,5-naphthyridin-1(2H)-yl)ethanone]
5 | 1000 to 100000 | CC(=O)N1c2cccnc2[C@H](Nc2ccccc2)[C@@H](C)[C@@H]1C1CC1 (single isomer, unassigned) [Example 102b]
6 | 100 | CC(=O)N1c2ccc(-c3ncc[nH]3)cc2[C@H](Nc2ncccn2)[C@@H](C)[C@@H]1C1CC1 [Example 588, 1-((2S,3R,4R)-2-cyclopropyl-6-(1H-imidazol-2-yl)-3-methyl-4-(pyrimidin-2-ylamino)-3,4-dihydroquinolin-1(2H)-yl)ethanone]
7 | 100 | CC(=O)N1c2ccc(C(N)=O)cc2[C@H](Nc2ccc(C#N)cc2)[C@@H](C)[C@@H]1C1CC1 [Example 378, (2S,3R,4R)-1-acetyl-4-((4-cyanophenyl)amino)-2-cyclopropyl-3-methyl-1,2,3,4-tetrahydroquinoline-6-carboxamide]
8 | 100 | CC(=O)N1c2ccc(N3CCNCC3)cc2[C@H](Nc2ccccc2)[C@@H](C)[C@@H]1C (racemic) [Example 69, rac-1-((2S,3R,4R)-2,3-dimethyl-4-(phenylamino)-6-(piperazin-1-yl)-3,4-dihydroquinolin-1(2H)-yl)ethanone]
9 | 1000 to 100000 | CC(=O)N1c2ccccc2[C@H](Nc2ccccc2)[C@@H](C)[C@@H]1CC(F)(F)F (racemic) [Example 53, rac-1-((2S,3R,4R)-3-methyl-4-(phenylamino)-2-(2,2,2-trifluoroethyl)-3,4-dihydroquinolin-1(2H)-yl)ethanone]
10 | 100 | COCCNC(=O)c1ccc2c(c1)[C@H](Nc1cccc(C)n1)[C@@H](C)[C@H](C1CC1)N2C(C)=O [Example 256, (2S,3R,4R)-1-acetyl-2-cyclopropyl-N-(2-methoxyethyl)-3-methyl-4-((6-methylpyridin-2-yl)amino)-1,2,3,4-tetrahydroquinoline-6-carboxamide]
11 | 1000 to 100000 | CC(=O)N1c2ccc(N3CCOCC3)cc2[C@@H](Nc2ccccc2)[C@H](C)[C@H]1C1CC1 (single isomer, unassigned) [Example 91b]
12 | 100 | CC(=O)N1c2ccccc2[C@H](Nc2cccc(C)n2)[C@@H](C)[C@@H]1C1CC1 (single isomer, unassigned) [Example 29a]
13 | 100 | COCCCNC(=O)c1ccc2c(c1)[C@H](Nc1cccc(C)n1)[C@@H](C)[C@H](C1CC1)N2C(C)=O [Example 480, (2S,3R,4R)-1-acetyl-2-cyclopropyl-N-(3-methoxypropyl)-3-methyl-4-((6-methylpyridin-2-yl)amino)-1,2,3,4-tetrahydroquinoline-6-carboxamide]
14 | 1000 to 100000 | CC(=O)N1c2ccc(N3CCOCC3)nc2[C@H](Nc2ccccc2)[C@@H](C)[C@@H]1C1CC1 (racemic) [Example 110, rac-1-((2S,3R,4R)-2-cyclopropyl-3-methyl-6-morpholino-4-(phenylamino)-3,4-dihydro-1,5-naphthyridin-1(2H)-yl)ethanone]
15 | 100 | CC(=O)N1c2ccc(N3CCC(N)CC3)cc2[C@H](Nc2ccccc2)[C@@H](C)[C@@H]1C (racemic) [Example 74, rac-1-((2S,3R,4R)-6-(4-aminopiperidin-1-yl)-2,3-dimethyl-4-(phenylamino)-3,4-dihydroquinolin-1(2H)-yl)ethanone, hydrochloride]
16 | 1000 to 100000 | CC(=O)N1c2cccnc2[C@@H](Nc2cccc(C)n2)[C@H](C)[C@H]1C1CC1 (single isomer, unassigned) [Example 114b]
17 | 100 | COc1ncccc1N[C@H]1c2cc(F)ccc2N(C(C)=O)[C@@H](C)[C@@H]1C [Example 509, 1-((2S,3R,4R)-6-fluoro-4-((2-methoxypyridin-3-yl)amino)-2,3-dimethyl-3,4-dihydroquinolin-1(2H)-yl)ethanone]

Row | IC50 [nM] | Structure (SMILES)
18 | 100 | CC(=O)N1c2ccc(C(=O)NCCO)cc2[C@H](Nc2ccc(F)c(C)n2)[C@@H](C)[C@@H]1C [Example 433, (2S,3R,4R)-1-acetyl-4-((5-fluoro-6-methylpyridin-2-yl)amino)-N-(2-hydroxyethyl)-2,3-dimethyl-1,2,3,4-tetrahydroquinoline-6-carboxamide]
19 | 1000 to 100000 | CC(=O)N1c2ccccc2[C@H](Nc2ncccc2O)[C@@H](C)[C@@H]1C1CC1 (racemic) [Example 49, rac-1-((2S,3R,4R)-2-cyclopropyyl-4-((3-hydroxypyridin-2-yl)amino)-3-methyl-3,4-dihydroquinolin-1(2H)-yl)ethanone]
20 | 1000 to 100000 | CC(=O)N1c2ccc(F)cc2[C@H](Nc2ccnc(O)c2)[C@@H](C)[C@@H]1C1CC1 [Example 531, 1-((2S,3R,4R)-2-cyclopropyl-6-fluoro-4-((2-hydroxypyridin-4-yl)amino)-3-methyl-3,4-dihydroquinolin-1(2H)-yl)ethanone]
21 | 1000 to 100000 | CC(=O)N1c2ccc(F)cc2[C@H](Nc2ccc(O)nc2)[C@@H](C)[C@@H]1C1CC1 [Example 533, 1-((2S,3R,4R)-2-cyclopropyl-6-fluoro-4-((6-hydroxypyridin-3-yl)amino)-3-methyl-3,4-dihydroquinolin-1(2H)-yl)ethanone]
22 | 1000 to 100000 | CC[C@@H]1[C@@H](C)[C@H](Nc2cccc(C)n2)c2ccccc2N1C(C)=O (single isomer, unassigned) [Example 25b]
23 | 100 | CC[C@H]1[C@H](C)[C@@H](Nc2ccc(C#N)cc2)c2cc(C(=O)O)ccc2N1C(C)=O [Example 331, (2S,3R,4R)-1-acetyl-4-((4-cyanophenyl)amino)-2-ethyl-3-methyl-1,2,3,4-tetrahydroquinoline-6-carboxylic acid]
24 | 1000 to 100000 | CC[C@H]1[C@H](C)[C@@H](Nc2cnc(C#N)cn2)c2cc(N3CCNCC3)ccc2N1C(C)=O (racemic) [Example 221, rac-5-(((2S,3R,4R)-1-acetyl-2-ethyl-3-methyl-6-(piperazin-1-yl)-1,2,3,4-tetrahydroquinolin-4-yl)amino)pyrazine-2-carbonitrile]
25 | 100 | CNC(=O)c1ccc2c(c1)[C@H](Nc1cccc(C)n1)[C@@H](C)[C@H](C)N2C(C)=O (racemic) [Example 231, rac-(2S,3R,4R)-1-acetyl-N,2,3-trimethyl-4-((6-methylpyridin-2-yl)amino)-1,2,3,4-tetrahydroquinoline-6-carboxamide]
26 | 100 | CNC(=O)c1ccc(N[C@H]2c3cc(F)ccc3N(C(C)=O)[C@@H](C)[C@@H]2C)cc1 [Example 506, 4-(((2S,3R,4R)-1-acetyl-6-fluoro-2,3-dimethyl-1,2,3,4-tetrahydroquinolin-4-yl)amino)-N-methylbenzamide]
27 | 100 | CC(=O)N1c2ccccc2[C@H](Nc2cccc(CN)c2)[C@@H](C)[C@@H]1C1CC1 (racemic) [Example 124, rac-1-((2S,3R,4R)-4-((3-(aminomethyl)phenyl)amino)-2-cyclopropyl-3-methyl-3,4-dihydroquinolin-1(2H)-yl)ethanone, hydrochloride]
28 | 100 | CC(=O)N1c2ccc(C3=CCOCC3)cc2[C@H](Nc2ncccn2)[C@@H](C)[C@@H]1C1CC1 [Example 555, 1-((2S,3R,4R)-2-cyclopropyl-6-(3,6-dihydro-2H-pyran-4-yl)-3-methyl-4-(pyrimidin-2-ylamino)-3,4-dihydroquinolin-1(2H)-yl)ethanone]
29 | 1000 to 100000 | CC(=O)N1c2ccccc2[C@@H](Nc2cccc(C)n2)[C@H](C)[C@H]1C1CC1 (single isomer, unassigned) [Example 29b]
30 | 1000 to 100000 | CC(=O)N1c2ccc(N3CCOCC3)cc2[C@H](Nc2cnc(C)cn2)[C@@H](C)[C@@H]1C1CC1 (racemic) [Example 211, rac-1-((2S,3R,4R)-2-cyclopropyl-3-methyl-4-((5-methylpyrazin-2-yl)amino)-6-morpholino-3,4-dihydroquinolin-1(2H)-yl)ethanone]
31 | 100 | CC[C@@H]1[C@@H](C)[C@H](Nc2cccc(C)n2)c2cc(C(=O)NC)ccc2N1C(C)=O (racemic) [Example 235, rac-(2S,3R,4R)-1-acetyl-2-ethyl-N,3-dimethyl-4-((6-methylpyridin-2-yl)amino)-1,2,3,4-tetrahydroquinoline-6-carboxamide]
32 | 100 | CC(=O)N1c2ccc(C(N)=O)cc2[C@H](Nc2cccc(CO)n2)[C@@H](C)[C@@H]1C1CC1 [Example 350, (2S,3R,4R)-1-acetyl-2-cyclopropyl-4-((6-(hydroxymethyl)pyridin-2-yl)amino)-3-methyl-1,2,3,4-tetrahydroquinoline-6-carboxamide]
33 | 100 | CC(=O)N1c2ccc(C(=O)NCCS(C)(=O)=O)cc2[C@H](Nc2cccc(C)n2)[C@@H](C)[C@@H]1C1CC1 [Example 262, (2S,3R,4R)-1-acetyl-2-cyclopropyl-3-methyl-4-((6-methylpyridin-2-yl)amino)-N-(2-(methylsulfonyl)ethyl)-1,2,3,4-tetrahydroquinoline-6-carboxamide]
